Experimental data published in ChEMBL document CHEMBL1201862, “PubChem BioAssay data set” (2004).
Calls of active or inactive are those of the source.

How the values were obtained:
Mu-type opioid receptor [1] = molecular target: T1, Mu-type opioid receptor (Homo sapiens, UniProt P35372); experiment: mu opioid receptor activators, image-based, SAR follow-up (AID 2352); format: functional
[2] = molecular target: T2, Delta-type opioid receptor (Homo sapiens, UniProt P41143); experiment: DOR agonists, SAR follow-up, image-based (AID 2370); format: functional
T2 sequence (P41143 whole entry): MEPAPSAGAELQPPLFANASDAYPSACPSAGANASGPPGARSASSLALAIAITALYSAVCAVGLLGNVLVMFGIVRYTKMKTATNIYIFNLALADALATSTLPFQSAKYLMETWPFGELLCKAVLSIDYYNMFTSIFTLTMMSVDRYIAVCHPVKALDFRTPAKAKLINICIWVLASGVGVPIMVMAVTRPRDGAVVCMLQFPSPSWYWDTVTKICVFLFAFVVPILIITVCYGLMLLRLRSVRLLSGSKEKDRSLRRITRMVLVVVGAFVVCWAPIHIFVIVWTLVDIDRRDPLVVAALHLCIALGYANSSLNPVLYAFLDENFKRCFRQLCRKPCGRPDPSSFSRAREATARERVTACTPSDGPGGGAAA

[3] = molecular target: T3, Kappa-type opioid receptor (Homo sapiens, UniProt P41145); experiment: kappa opioid receptor blockers, image-based, SAR follow-up (AID 2348); format: functional
T3 sequence (P41145 whole entry): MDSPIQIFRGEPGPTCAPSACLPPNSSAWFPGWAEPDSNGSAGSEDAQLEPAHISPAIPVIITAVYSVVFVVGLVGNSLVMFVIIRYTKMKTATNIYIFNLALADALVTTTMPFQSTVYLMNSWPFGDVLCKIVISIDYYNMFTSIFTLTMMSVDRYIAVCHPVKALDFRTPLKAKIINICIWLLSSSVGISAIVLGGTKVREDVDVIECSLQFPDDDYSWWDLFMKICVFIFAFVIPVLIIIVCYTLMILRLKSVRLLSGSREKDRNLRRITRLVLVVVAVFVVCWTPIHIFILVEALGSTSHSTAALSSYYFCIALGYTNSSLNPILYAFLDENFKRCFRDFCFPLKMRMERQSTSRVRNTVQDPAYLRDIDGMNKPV

Mu-type opioid receptor [4] = molecular target: T1, Mu-type opioid receptor; experiment: mu opioid receptor blockers – image-based, SAR follow-up (AID 2420); format: functional;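 note: compounds added before stimulation of receptor with agonist DAMGO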
[5] = molecular target: T3, Kappa-type opioid receptor; experiment: kappa opioid receptor activation potency – imaging, image-based, SAR follow-up (AID 2359); format: functional
[6] = molecular target: T2, Delta-type opioid receptor; experiment: delta opioid receptor blockers – image-based, SAR follow-up (AID 2357); format: functional
[7] = molecular target: T3, Kappa-type opioid receptor; experiment: kappa opioid receptor blockers, cell-based, luminescence, beta-arrestin, SAR follow-up (AID 2285); format: functional
Exodeoxyribonuclease V = Exodeoxyribonuclease V (Escherichia coli (strain K12), UniProt P04993+P07648+P08394); experiment: RecBCD inhibition via phage-restricted bacterial growth – absorbance, V66 E. coli, mutant T4 phage, counter-screen for AddAB inhibitor project, dose response (AID 492957); format: functional, cell-based, Escherichia coli str. K-12 substr. MG1655
Sequence of Exodeoxyribonuclease V (P04993 whole entry): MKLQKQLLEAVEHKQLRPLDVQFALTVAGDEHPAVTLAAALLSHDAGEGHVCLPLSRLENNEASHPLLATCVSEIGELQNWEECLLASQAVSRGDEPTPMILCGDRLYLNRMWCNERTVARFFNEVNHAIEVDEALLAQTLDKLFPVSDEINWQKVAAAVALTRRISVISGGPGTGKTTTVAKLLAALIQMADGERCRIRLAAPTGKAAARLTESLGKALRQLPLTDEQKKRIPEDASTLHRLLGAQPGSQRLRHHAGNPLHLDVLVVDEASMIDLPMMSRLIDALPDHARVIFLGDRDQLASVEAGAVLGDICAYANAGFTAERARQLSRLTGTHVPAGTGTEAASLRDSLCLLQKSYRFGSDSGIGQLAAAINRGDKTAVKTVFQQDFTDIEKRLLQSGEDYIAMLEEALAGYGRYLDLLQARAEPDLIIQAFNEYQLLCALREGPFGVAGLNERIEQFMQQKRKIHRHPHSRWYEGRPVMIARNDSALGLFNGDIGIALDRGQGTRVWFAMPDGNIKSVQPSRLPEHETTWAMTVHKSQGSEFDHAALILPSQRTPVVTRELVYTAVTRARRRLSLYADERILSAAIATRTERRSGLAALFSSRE
Sequence of Exodeoxyribonuclease V (P07648 whole entry): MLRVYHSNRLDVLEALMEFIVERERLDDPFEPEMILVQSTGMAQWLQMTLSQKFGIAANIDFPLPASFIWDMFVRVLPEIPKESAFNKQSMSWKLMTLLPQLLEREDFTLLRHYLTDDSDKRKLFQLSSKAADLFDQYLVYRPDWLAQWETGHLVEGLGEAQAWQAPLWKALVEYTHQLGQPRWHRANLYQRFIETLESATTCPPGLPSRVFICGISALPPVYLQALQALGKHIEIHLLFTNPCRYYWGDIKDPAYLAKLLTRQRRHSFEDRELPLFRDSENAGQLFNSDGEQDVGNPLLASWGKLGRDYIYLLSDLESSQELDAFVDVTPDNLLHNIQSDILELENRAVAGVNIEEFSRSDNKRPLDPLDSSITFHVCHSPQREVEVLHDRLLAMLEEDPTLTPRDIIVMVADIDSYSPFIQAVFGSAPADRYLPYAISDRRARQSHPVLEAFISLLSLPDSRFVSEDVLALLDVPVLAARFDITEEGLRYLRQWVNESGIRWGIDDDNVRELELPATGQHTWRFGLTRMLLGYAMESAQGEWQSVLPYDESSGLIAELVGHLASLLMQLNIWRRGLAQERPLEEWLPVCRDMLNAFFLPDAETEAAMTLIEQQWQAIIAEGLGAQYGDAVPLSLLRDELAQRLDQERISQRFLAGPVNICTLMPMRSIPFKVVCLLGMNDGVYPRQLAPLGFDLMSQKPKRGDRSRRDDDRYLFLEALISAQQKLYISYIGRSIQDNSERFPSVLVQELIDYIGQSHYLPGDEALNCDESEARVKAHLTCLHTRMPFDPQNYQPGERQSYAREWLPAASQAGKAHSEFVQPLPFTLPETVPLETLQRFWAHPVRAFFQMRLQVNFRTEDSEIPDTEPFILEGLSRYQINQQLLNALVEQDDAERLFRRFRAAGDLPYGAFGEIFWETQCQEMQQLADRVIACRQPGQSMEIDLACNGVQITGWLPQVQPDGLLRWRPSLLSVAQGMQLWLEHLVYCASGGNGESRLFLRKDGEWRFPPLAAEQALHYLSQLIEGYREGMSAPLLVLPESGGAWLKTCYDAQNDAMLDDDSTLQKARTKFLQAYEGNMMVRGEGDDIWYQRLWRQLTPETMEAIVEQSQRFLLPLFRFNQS
Sequence of Exodeoxyribonuclease V (P08394 whole entry): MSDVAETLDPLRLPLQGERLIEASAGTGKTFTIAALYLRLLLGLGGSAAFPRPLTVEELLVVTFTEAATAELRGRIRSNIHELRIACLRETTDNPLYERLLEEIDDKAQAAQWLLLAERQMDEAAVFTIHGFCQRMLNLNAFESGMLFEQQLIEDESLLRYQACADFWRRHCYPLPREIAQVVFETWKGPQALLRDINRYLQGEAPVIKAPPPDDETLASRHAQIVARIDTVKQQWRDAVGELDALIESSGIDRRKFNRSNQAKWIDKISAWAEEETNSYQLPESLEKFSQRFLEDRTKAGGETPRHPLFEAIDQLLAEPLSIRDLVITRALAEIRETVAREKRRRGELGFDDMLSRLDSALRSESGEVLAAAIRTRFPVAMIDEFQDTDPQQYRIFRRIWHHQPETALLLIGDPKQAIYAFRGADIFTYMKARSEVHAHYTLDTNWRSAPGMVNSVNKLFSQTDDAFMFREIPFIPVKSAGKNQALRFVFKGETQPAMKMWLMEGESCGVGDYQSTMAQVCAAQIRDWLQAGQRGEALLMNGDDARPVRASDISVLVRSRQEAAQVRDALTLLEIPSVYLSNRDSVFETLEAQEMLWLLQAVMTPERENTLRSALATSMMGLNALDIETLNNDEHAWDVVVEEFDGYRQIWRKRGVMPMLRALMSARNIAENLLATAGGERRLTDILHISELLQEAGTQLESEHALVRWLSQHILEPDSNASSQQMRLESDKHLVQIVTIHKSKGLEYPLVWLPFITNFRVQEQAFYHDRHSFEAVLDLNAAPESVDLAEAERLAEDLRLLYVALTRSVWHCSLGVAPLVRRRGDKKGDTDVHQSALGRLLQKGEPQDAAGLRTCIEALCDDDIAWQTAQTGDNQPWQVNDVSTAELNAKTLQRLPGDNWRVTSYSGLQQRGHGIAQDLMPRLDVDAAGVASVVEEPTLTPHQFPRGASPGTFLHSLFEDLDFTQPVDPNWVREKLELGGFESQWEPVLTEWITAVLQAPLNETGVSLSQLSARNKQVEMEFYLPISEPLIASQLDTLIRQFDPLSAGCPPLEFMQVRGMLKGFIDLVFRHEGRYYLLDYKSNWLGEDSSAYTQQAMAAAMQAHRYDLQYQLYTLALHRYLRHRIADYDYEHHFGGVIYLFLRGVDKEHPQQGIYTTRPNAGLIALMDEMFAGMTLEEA

Caspase-3 = molecular target: T4, Caspase-3 (Homo sapiens, UniProt P42574); format: functional;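 note: Dose-response selectivity test against caspase-3 for candidate inhibitors of sentrin-specific proteases (SENPs)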
T4 sequence (P42574 whole entry): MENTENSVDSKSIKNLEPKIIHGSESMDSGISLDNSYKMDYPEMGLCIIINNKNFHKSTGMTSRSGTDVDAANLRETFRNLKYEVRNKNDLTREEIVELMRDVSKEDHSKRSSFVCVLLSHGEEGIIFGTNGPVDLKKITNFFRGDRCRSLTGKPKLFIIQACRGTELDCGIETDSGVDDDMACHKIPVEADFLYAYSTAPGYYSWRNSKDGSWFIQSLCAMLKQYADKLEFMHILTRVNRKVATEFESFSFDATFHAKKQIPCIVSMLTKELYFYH

[8] = molecular target: T5, Sentrin-specific protease 7 (Homo sapiens, UniProt Q9BQF6); format: functional;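 note: Luminescence-based dose-response confirmation of ultra-high-throughput screening hits, measuring inhibition of SENP7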
T5 sequence (Q9BQF6 whole entry): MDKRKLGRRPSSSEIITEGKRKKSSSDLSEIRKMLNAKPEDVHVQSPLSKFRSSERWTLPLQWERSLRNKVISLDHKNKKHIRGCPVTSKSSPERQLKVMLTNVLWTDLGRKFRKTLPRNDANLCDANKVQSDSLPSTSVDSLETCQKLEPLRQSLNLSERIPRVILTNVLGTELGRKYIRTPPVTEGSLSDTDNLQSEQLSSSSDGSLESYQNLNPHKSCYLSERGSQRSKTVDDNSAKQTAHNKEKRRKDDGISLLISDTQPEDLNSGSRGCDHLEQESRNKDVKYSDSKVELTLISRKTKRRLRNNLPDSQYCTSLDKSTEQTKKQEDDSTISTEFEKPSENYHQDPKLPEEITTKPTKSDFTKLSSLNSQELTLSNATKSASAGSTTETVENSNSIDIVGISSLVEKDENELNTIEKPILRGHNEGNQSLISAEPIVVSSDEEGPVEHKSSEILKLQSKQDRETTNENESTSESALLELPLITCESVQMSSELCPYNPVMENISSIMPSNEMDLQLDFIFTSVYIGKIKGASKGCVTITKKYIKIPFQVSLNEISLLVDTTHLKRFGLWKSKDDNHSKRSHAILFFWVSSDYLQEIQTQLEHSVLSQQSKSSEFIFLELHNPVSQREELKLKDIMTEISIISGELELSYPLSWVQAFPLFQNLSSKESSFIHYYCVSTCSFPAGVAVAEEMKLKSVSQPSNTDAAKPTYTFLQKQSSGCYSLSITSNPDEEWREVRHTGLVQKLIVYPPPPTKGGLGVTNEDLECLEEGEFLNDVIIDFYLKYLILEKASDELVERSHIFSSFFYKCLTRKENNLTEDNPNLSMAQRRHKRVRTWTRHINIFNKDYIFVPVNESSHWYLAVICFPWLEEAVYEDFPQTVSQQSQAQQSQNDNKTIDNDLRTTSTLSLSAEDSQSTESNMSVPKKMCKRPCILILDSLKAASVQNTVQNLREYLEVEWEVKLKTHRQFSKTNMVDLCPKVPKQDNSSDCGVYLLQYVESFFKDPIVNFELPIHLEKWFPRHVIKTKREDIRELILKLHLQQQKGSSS

[9] = molecular target: T6, Sentrin-specific protease 6 (Homo sapiens, UniProt Q9GZR1); format: functional;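 note: Luminescence-based dose-response confirmatory assay of SENP6 inhibition, following up an ultra-high-throughput screen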
T6 sequence (Q9GZR1 whole entry): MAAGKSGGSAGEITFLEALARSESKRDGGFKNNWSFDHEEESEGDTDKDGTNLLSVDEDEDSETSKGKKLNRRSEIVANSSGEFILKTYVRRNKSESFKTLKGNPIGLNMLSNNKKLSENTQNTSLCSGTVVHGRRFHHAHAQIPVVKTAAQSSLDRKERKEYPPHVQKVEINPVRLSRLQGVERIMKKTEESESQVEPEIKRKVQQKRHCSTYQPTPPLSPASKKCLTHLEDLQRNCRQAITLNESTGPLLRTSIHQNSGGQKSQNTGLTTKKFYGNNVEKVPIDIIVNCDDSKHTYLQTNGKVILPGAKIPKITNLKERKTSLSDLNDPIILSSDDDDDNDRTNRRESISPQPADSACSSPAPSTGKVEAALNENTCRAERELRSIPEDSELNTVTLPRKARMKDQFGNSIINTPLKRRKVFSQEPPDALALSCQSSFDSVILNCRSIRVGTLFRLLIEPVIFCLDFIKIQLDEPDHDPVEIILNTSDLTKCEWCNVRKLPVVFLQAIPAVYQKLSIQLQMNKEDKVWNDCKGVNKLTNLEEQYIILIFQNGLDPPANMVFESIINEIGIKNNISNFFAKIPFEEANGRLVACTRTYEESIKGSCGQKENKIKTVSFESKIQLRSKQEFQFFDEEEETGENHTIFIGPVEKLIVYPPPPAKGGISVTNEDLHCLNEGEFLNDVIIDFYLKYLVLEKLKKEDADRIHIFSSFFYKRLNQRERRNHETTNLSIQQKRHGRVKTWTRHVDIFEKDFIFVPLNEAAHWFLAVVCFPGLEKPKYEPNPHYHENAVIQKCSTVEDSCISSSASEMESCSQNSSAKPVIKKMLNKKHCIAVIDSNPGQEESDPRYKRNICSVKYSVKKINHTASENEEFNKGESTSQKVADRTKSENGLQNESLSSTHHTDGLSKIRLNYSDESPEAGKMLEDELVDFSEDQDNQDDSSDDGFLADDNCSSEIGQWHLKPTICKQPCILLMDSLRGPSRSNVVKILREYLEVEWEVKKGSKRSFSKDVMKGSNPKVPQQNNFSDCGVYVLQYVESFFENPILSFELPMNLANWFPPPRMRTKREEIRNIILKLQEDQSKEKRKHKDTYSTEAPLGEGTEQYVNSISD

[10] = molecular target: T7, Sentrin-specific protease 8 (Homo sapiens, UniProt Q96LD8); format: functional;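 note: luminescence read-out of SENP8 inhibition, dose-response confirmation following an ultra-high-throughput screen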
T7 sequence (Q96LD8 whole entry): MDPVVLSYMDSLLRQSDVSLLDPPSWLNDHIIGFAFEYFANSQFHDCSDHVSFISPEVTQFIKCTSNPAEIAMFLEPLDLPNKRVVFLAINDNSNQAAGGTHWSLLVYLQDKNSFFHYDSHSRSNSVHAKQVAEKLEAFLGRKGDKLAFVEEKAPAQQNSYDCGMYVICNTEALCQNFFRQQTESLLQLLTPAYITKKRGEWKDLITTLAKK

[11] = Counterscreen for AddAB inhibitors: absorbance-based bacterial cell-based high throughput dose response assay for inhibitors of bacterial viability. [Related pubchem assays (depositor defined):AID435030, AID449728, AID449731, AID488942, AID488955, AID488956]; format: functional
[12] = molecular target: Mitochondrial peptide methionine sulfoxide reductase (Bos taurus, UniProt P54149); experiment: Absorbance-based biochemical high throughput dose response assay for activators of Methionine sulfoxide reductase A (MsrA).; format: functional
Sequence of Mitochondrial peptide methionine sulfoxide reductase (P54149 whole entry, the tested form may be a part): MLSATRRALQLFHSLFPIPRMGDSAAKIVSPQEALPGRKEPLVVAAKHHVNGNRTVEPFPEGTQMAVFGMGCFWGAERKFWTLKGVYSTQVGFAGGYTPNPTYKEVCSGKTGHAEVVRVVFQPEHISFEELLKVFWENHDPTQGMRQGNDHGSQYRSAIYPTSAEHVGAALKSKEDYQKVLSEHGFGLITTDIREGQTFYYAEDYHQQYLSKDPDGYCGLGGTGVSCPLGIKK

[13] = CCR5-tropic HIV-1 fusion blockers – cell-based, CCR5-tropic Env, dose response (AID 2279); format: functional
[14] = molecular target: G-protein coupled receptor 55 (Homo sapiens, UniProt Q9Y2T6); experiment: blockers of GPR55 signalling, imaged – imaging, image-based, counter-screen for GPR35 antagonist project, SAR follow-up (AID 2397); format: functional
Sequence of G-protein coupled receptor 55 (Q9Y2T6 whole entry): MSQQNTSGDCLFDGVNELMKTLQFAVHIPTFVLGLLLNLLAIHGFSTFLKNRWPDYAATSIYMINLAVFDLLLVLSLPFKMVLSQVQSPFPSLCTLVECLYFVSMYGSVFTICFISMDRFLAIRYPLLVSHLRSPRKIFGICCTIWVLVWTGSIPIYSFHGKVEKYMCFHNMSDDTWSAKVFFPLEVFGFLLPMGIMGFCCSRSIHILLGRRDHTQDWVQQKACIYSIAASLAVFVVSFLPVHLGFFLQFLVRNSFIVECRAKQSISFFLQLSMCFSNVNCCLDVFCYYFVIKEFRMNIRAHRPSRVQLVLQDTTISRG

[15] = molecular target: T8, Probable nicotinate-nucleotide adenylyltransferase (Staphylococcus aureus (strain N315), UniProt P65502); format: functional, Staphylococcus aureus subsp. aureus N315;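 for IC50 Mean: confirmatory dose-response retesting of NadD inhibitor hits first found in an ultra-high-throughput screen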
T8 sequence (P65502 whole entry): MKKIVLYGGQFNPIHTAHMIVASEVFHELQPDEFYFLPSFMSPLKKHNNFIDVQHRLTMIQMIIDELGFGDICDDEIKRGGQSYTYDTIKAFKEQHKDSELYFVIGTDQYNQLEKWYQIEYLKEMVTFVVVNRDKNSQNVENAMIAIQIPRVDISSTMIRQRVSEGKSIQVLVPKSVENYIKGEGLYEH

[16] = molecular target: T8, Probable nicotinate-nucleotide adenylyltransferase; format: functional, Staphylococcus aureus subsp. aureus N315; details: read-out: IC50_Mean
Genome polyprotein = Genome polyprotein (Hepatitis C virus, UniProt Q2Q167); experiment: disruption of hepatitis C core self-association – biochemical, TR-FRET, dose response (AID 2159); design: species or system Hepacivirus hominis;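 note: blocks dimerization of HCV core protein measured by TR-FRET between tagged core106 pairs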
Sequence of Genome polyprotein (Q2Q167 whole entry): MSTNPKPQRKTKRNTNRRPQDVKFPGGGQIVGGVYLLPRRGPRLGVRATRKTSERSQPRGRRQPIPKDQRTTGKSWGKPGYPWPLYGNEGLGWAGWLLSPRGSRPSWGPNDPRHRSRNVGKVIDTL

[17] = viability of PTEN-deleted HCT116 cells – cell-based, HCT116 PTEN knockout, dose response (AID 1047); format: functional;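 note: HCT116 colon tumor cells with PTEN knocked out; cells exposed to compound for 60 hours before readout; potency for loss of cell viability measured by luminescence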
[18] = viability of HCT116 lacking mutant beta-catenin – cell-based, human colon tumor, dose response (AID 1045); format: functional;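 note: HCT116 colon tumor cells with beta catenin knocked out; cells exposed to compound for 60 hours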
[19] = restored growth of temperature-sensitive Burl-1 yeast – whole organism, S. cerevisiae, Burl-1 ts mutant, luminescence, counter-screen for SUMOylation pathway inhibitor project, dose response (AID 463199); format: functional
cells [20] = format: functional, cell-based
cells [21] = format: functional, cell-based; remark: listed apart in the source
[22] = molecular target: Lysine-specific demethylase 4C (Homo sapiens, UniProt Q9H3R0); experiment: inhibition of JMJD2C H3K9me3 demethylation – biochemical, DELFIA europium, cherry-picked samples, dose response (AID 488835); format: functional
HEK293 = experiment: EBV LMP1 TES2 canonical NF-kB signalling blockers – cell-based, HEK293, luciferase, cherry-pick, dose response (AID 588343); format: functional; details: Homo sapiens
INS1 = experiment: INS-1E survival protection against cytokine death – cell-based, luminescence, retest, dose response (AID 449756); format: functional; details: Rattus norvegicus;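 note: cell death triggered by IL-1 beta plus TNF-alpha plus IFN-gamma mixture; protective hits raise ATP signal compared with cytokine alone wells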

T1 sequence (P35372 whole entry): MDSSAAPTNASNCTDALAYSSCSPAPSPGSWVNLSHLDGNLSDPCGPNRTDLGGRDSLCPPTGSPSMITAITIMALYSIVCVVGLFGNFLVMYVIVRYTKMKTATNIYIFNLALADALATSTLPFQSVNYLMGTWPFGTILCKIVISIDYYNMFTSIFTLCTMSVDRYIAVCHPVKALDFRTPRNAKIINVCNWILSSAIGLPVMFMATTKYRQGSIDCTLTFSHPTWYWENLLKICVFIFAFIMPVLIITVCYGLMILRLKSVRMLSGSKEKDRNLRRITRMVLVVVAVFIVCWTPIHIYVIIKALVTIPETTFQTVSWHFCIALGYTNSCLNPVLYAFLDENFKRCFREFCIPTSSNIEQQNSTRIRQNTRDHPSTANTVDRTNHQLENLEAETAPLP

CC(=O)c1ccc(S(=O)(=O)NCc2ccc(C(=O)N(C)CC(=O)Nc3cccc(F)c3)cc2)cc1
inactive: EC50 (Mu-type opioid receptor [1]) > 32 µM | EC50 [2] > 32 µM | IC50 [3] > 32 µM | IC50 (Mu-type opioid receptor [4]) > 32 µM | EC50 [5] > 32 µM | IC50 [6] > 32 µM | IC50 [7] > 10 µM

O=C(COC(=O)c1ccc([N+](=O)[O-])s1)c1ccc[nH]1
active: IC50 (Caspase-3) 10.2 µM | IC50 [8] 18.4 µM | IC50 [9] 6.52 µM | IC50 [10] 5.37 µM
inactive: IC50 (Exodeoxyribonuclease V) > 119 µM | IC50 [11] 104 µM | EC50 [12] 15.8 µM

CCC(Sc1nc2ccsc2c(=O)n1Cc1ccc(C(=O)O)cc1)C(=O)Nc1ccc(C)c(Cl)c1 (configuration not stated)
active: IC50 [13] 47.7 µM | IC50 [15] 6.61 µM | IC50 [16] 38.6 µM
inactive: IC50 [14] 14.9 µM

O=C(N/N=C/C(Br)=C/c1ccccc1)c1[nH]nc2c1CCC2
> 49.8 µM (not active): IC50 (Genome polyprotein)
active: EC50 [17] < 0.059 µM | EC50 [18] < 0.059 µM | AC50 [19] 120 µM

COc1cccc(/C=N/Nc2nc3ccccc3[nH]2)c1O
> 350 µM (not active): EC50 (cells [20])
active: EC50 (cells [21]) 26.6 µM | AC50 [22] 8.63 µM | AC50 (HEK293) 3.34 µM | AC50 (INS1) 2.22 µM
